According to patent US20210053957A1, “HERBICIDAL COMPOUNDS” (SYNGENTA PARTICIPATIONS AG, priority 2018, published 2021):

Key:
Assay in all cases: Post-emergence efficacy, glasshouse spray test
Type in all cases: in vivo
Eleusine indica (ELEIN) = details: Application Rate 500 g/Ha, evaluated after 13 days; for pest or weed control at 500 g/ha: Eleusine indica, post-emergence, 312 h, read-out: Control of weed species after post-emergence application, ELEIN (100=total damage to plant; 0=no damage to plant)
Description: (§1) Seeds of a variety of test species were sown in standard soil in pots. After cultivation for 14 days (post-emergence) under controlled conditions in a glasshouse (at 24/16° C. day/night; 14 hours light; 65% humidity), the plants were sprayed with an aqueous spray solution derived from the dissolution of the technical active ingredient formula (I) in a small amount of acetone and a special solvent and emulsifier mixture referred to as IF50 (11.12% Emulsogen EL360 TM+44.44% N-methyl pyrrolidone+44.44% Dowanol DPM glycolether), to create a 50 g/l solution which was then diluted to required concentration using 0.25% or 1% Empicol ESC70 (Sodium lauryl ether sulphate)+1% ammonium sulphate as diluent. The test plants were then grown in a glasshouse under controlled conditions (at 24/16° C., day/night; 14 hours light; 65% humidity) and watered twice daily. After 13 days the test was evaluated (100=total damage to plant; 0=no damage to plant).
(§2) Ipomoea hederacea (IPOHE), Euphorbia heterophylla (EPHHL), Chenopodium album (CHEAL), Amaranthus palmeri (AMAPA), Lolium perenne (LOLPE), Digitaria sanguinalis (DIGSA), Eleusine indica (ELEIN), Echinochloa crus-galli (ECHCG), Setaia fabei (SETFA)

Setaia fabei (SETFA) = details: Application Rate 500 g/Ha, evaluated after 13 days; for pest or weed control at 500 g/ha: Setaria faberi, post-emergence, 312 h, read-out: Control of weed species after post-emergence application, SETFA (100=total damage to plant; 0=no damage to plant)
Description: as §1, §2

[1] = system: Amaranthus palmeri (AMAPA); details: Application Rate 500 g/Ha, evaluated after 13 days; for pest or weed control at 500 g/ha: Amaranthus palmeri, post-emergence, 312 h, read-out: Control of weed species after post-emergence application, AMAPA (100=total damage to plant; 0=no damage to plant)
Description: as §1, §2

[2] = system: Echinochloa crus-galli (ECHCG); details: Application Rate 500 g/Ha, evaluated after 13 days; for pest or weed control at 500 g/ha: Echinochloa crus-galli, post-emergence, 312 h, read-out: Control of weed species after post-emergence application, ECHCG (100=total damage to plant; 0=no damage to plant)
Description: as §1, §2

[3] = system: Digitaria sanguinalis (DIGSA); details: Application Rate 500 g/Ha, evaluated after 13 days; for pest or weed control at 500 g/ha: Digitaria sanguinalis, post-emergence, 312 h, read-out: Control of weed species after post-emergence application, DIGSA (100=total damage to plant; 0=no damage to plant)
Description: as §1, §2

[4] = system: Euphorbia heterophylla (EPHHL); details: Application Rate 500 g/Ha, evaluated after 13 days; for pest or weed control at 500 g/ha: Euphorbia heterophylla, post-emergence, 312 h, read-out: Control of weed species after post-emergence application, EPHHL (100=total damage to plant; 0=no damage to plant)
Description: as §1, §2

Lolium perenne (LOLPE) = details: Application Rate 500 g/Ha, evaluated after 13 days; for pest or weed control at 500 g/ha: Lolium perenne, post-emergence, 312 h, read-out: Control of weed species after post-emergence application, LOLPE (100=total damage to plant; 0=no damage to plant)
Description: as §1, §2

[5] = system: Ipomoea hederacea (IPOHE); details: Application Rate 500 g/Ha, evaluated after 13 days; for pest or weed control at 500 g/ha: Ipomoea hederacea, post-emergence, 312 h, read-out: Control of weed species after post-emergence application, IPOHE (100=total damage to plant; 0=no damage to plant)
Description: as §1, §2

[6] = system: Chenopodium album (CHEAL); details: Application Rate 500 g/Ha, evaluated after 13 days; for pest or weed control at 500 g/ha: Chenopodium album, post-emergence, 312 h, read-out: Control of weed species after post-emergence application, CHEAL (100=total damage to plant; 0=no damage to plant)
Description: as §1, §2

SMILES | pest or weed control at 500 g/ha (Eleusine indica (ELEIN)) [%] | pest or weed control at 500 g/ha (Setaia fabei (SETFA)) [%] | pest or weed control at 500 g/ha [1] [%] | pest or weed control at 500 g/ha [2] [%] | pest or weed control at 500 g/ha [3] [%] | pest or weed control at 500 g/ha [4] [%] | pest or weed control at 500 g/ha (Lolium perenne (LOLPE)) [%] | pest or weed control at 500 g/ha [5] [%] | pest or weed control at 500 g/ha [6] [%] | Control of weed species after post-emergence application, ELEIN (100=total damage to plant; 0=no damage to plant) (Eleusine indica (ELEIN)) | Control of weed species after post-emergence application, SETFA (100=total damage to plant; 0=no damage to plant) (Setaia fabei (SETFA)) | Control of weed species after post-emergence application, AMAPA (100=total damage to plant; 0=no damage to plant) [1] | Control of weed species after post-emergence application, ECHCG (100=total damage to plant; 0=no damage to plant) [2] | Control of weed species after post-emergence application, DIGSA (100=total damage to plant; 0=no damage to plant) [3] | Control of weed species after post-emergence application, EPHHL (100=total damage to plant; 0=no damage to plant) [4] | Control of weed species after post-emergence application, LOLPE (100=total damage to plant; 0=no damage to plant) (Lolium perenne (LOLPE)) | Control of weed species after post-emergence application, IPOHE (100=total damage to plant; 0=no damage to plant) [5] | Control of weed species after post-emergence application, CHEAL (100=total damage to plant; 0=no damage to plant) [6]
COc1cc(-c2cc[n+](CCC(=O)O)nc2)sn1 [Compound A33] | 50 | 30 | 100 | 20 | 70 | 80 | 30 | 10 | 70 |  |  |  |  |  |  |  |  | 
CNC(=O)c1coc(-c2cc[n+](CCS(=O)(=O)O)nc2)n1 [Compound A125] |  |  |  |  |  |  |  |  |  | 40 | 70 | 30 | 60 | 60 | 40 | 40 | 10 | 10
CC(C(=O)O)[n+]1ccc(-c2ncco2)cn1 (stereo not drawn) [Compound A90] | 10 | 10 | 20 | 10 | 10 | 20 | 0 | 10 | 20 |  |  |  |  |  |  |  |  | 
Cc1coc(-c2cc[n+](CCS(=O)(=O)[O-])nc2)n1 [Compound A40] | 100 | 80 | 100 | 80 | 80 | 100 | 80 | 90 | 100 |  |  |  |  |  |  |  |  | 
O=S(=O)([O-])CC[n+]1ccc(-c2cscn2)cn1 [Compound A61] | 60 | 70 | 100 | 50 | 80 | 40 | 30 | 20 | 70 |  |  |  |  |  |  |  |  | 
O=C(O)CC[n+]1ccc(-c2ccsc2)cn1 [Compound A63] | 20 | 30 | 0 | 20 | 20 | 40 | 10 | 20 | 30 |  |  |  |  |  |  |  |  | 
O=C(O)C[n+]1ccc(-c2ncco2)cn1 [Compound A71] | 100 | 90 | 100 | 100 | 90 | 90 | 80 | 60 | 90 |  |  |  |  |  |  |  |  | 
Cn1cnnc1-c1cc[n+](CCS(=O)(=O)[O-])nc1 [Compound A50] | 70 | 100 | 100 | 100 | 100 | 100 | 80 | 70 | 100 |  |  |  |  |  |  |  |  | 
CC(C)(C)COS(=O)(=O)CC[n+]1ccc(-c2cocn2)cn1 [Compound A21, 2,2-dimethylpropyl 2-(4-oxazol-4-ylpyridazin-1-ium-1-yl)ethanesulfonate; 2,2,2-trifluoroacetate] | 10 | 10 | 10 | 10 | 10 | 40 | 0 | 10 | 40 |  |  |  |  |  |  |  |  | 
Cn1cnc(-c2cc[n+](CCCS(=O)(=O)[O-])nc2)n1 [Compound A117] | 20 | 90 | 40 | 70 | 80 | 70 | 40 | 30 | 20 |  |  |  |  |  |  |  |  | 
COC(=O)C[n+]1ccc(-c2ncn(C)n2)cn1 [Compound A87] | 80 | 40 | 80 | 50 | 90 | 80 | 0 | 10 | 20 |  |  |  |  |  |  |  |  | 
COP(=O)(CC[n+]1ccc(-c2ncco2)cn1)OC.O=C([O-])C(F)(F)F [Compound A108] |  |  |  |  |  |  |  |  |  | 20 | 30 | 20 | 30 | 60 | 30 | 10 | 30 | 20
O=C(O)C[n+]1ccc(-c2nccs2)cn1 [Compound A123] | 20 | 10 | 0 | 10 | 20 | 30 | 10 | 10 | 0 |  |  |  |  |  |  |  |  | 
CNC(=O)c1oc(-c2cc[n+](CCC(=O)O)nc2)nc1C [Compound A129] | 90 | 100 | 100 | 60 | 70 | 90 | 60 | 80 | 70 |  |  |  |  |  |  |  |  | 
O=C(O)CC[n+]1ccc(-c2nnc[nH]2)cn1 [Compound A37] | 10 | 10 | 30 | 10 | 10 | 30 | 0 | 20 | 50 |  |  |  |  |  |  |  |  | 
CNC(=O)c1oc(-c2cc[n+](CCC(=O)OC)nc2)nc1C [Compound A137] | 30 | 30 | 20 | 40 | 50 | 20 | 10 | 10 | 10 |  |  |  |  |  |  |  |  | 
